#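 Test compounds were applied to cells in 96-well plates for 48 hours at 5 doses. Here, GI50 denotes the concentration required for 50% inhibition of growth.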 Active and inactive are the calls of the source. Cut-off read from the data, not from the text of the source: active = GI50 up to about 1.1 µM and inactive = higher.
# How the values were obtained:
# Test in all cases: DTP human tumour cell line panel, 48 h
# MCF7 = system: MCF7
# UACC-62 = system: UACC-62
# NCI-H226 = system: NCI-H226
# HT-29 = system: HT-29
# SK-MEL-2 = system: SK-MEL-2
# U-251 = system: U-251
# HCT-15 = system: HCT-15
# MDA-MB-435 = system: MDA-MB-435
# HOP-62 = system: HOP-62
# 786-0 = system: 786-0
# SN12C = system: SN12C
# K562 = system: K562
# CCRF-CEM = system: CCRF-CEM
# NCI/ADR-RES = system: NCI/ADR-RES
# SK-OV-3 = system: SK-OV-3
# HL-60 = system: HL-60
# SK-MEL-28 = system: SK-MEL-28
# NCI-H23 = system: NCI-H23
# UACC-257 = system: UACC-257
# Hs-578T = system: Hs-578T
# SF-539 = system: SF-539
# EKVX = system: EKVX
# TK-10 = system: TK-10
# NCI-H522 = system: NCI-H522
# IGROV-1 = system: IGROV-1
# SF-295 = system: SF-295
# ACHN = system: ACHN
# PC-3 = system: PC-3
# OVCAR-4 = system: OVCAR-4
# MDA-MB-231 = system: MDA-MB-231
# KM12 = system: KM12
# SNB-75 = system: SNB-75
# SW-620 = system: SW-620
# LOX IMVI = system: LOX IMVI
# HCT-116 = system: HCT-116
# NCI-H460 = system: NCI-H460
# Malme-3M = system: Malme-3M
# OVCAR-5 = system: OVCAR-5
# SNB-19 = system: SNB-19
# HCC 2998 = system: HCC 2998
# RPMI-8226 = system: RPMI-8226
# SR = system: SR
# DU-145 = system: DU-145
# T47D = system: T47D
# A498 = system: A498
# HOP-92 = system: HOP-92
# MDA-N = system: MDA-N
# SK-MEL-5 = system: SK-MEL-5
# SF-268 = system: SF-268
# BT-549 = system: BT-549
# A549 = system: A549
# MOLT-4 = system: MOLT-4
# M14 = system: M14
# CAKI-1 = system: CAKI-1
# OVCAR-8 = system: OVCAR-8
# OVCAR-3 = system: OVCAR-3
# COLO 205 = system: COLO 205
# UO-31 = system: UO-31
# RXF 393 = system: RXF 393
smiles,measurement,setting,value
Cc1ccc2c(c1)C(=O)/C(=C\c1ccc(Cl)cc1)CCS2(=O)=O,GI50,MCF7,3.85 µM (inactive)
same,GI50,UACC-62,3.15 µM (inactive)
same,GI50,NCI-H226,3.84 µM (inactive)
same,GI50,HT-29,2.55 µM (inactive)
same,GI50,SK-MEL-2,19.4 µM (inactive)
same,GI50,U-251,3.38 µM (inactive)
same,GI50,HCT-15,1.97 µM
same,GI50,MDA-MB-435,4.35 µM (inactive)
same,GI50,HOP-62,6.67 µM (inactive)
same,GI50,786-0,1.69 µM (inactive)
same,GI50,SN12C,2.86 µM (inactive)
same,GI50,K562,1.42 µM (inactive)
same,GI50,CCRF-CEM,2 µM (inactive)
same,GI50,NCI/ADR-RES,2.18 µM (inactive)
same,GI50,SK-OV-3,7.82 µM (inactive)
same,GI50,HL-60,2.66 µM (inactive)
same,GI50,SK-MEL-28,4.59 µM (inactive)
same,GI50,NCI-H23,3.28 µM (inactive)
same,GI50,UACC-257,2.65 µM (inactive)
same,GI50,Hs-578T,3.1 µM (inactive)
same,GI50,SF-539,2 µM (inactive)
same,GI50,EKVX,11.3 µM (inactive)
same,GI50,TK-10,2.1 µM (inactive)
same,GI50,NCI-H522,1.52 µM (inactive)
same,GI50,IGROV-1,2.65 µM (inactive)
same,GI50,SF-295,4.21 µM (inactive)
same,GI50,ACHN,1.95 µM (inactive)
same,GI50,PC-3,5.09 µM (inactive)
same,GI50,OVCAR-4,2.64 µM (inactive)
same,GI50,MDA-MB-231,3.58 µM (inactive)
same,GI50,KM12,2.66 µM (inactive)
same,GI50,SNB-75,3.88 µM (inactive)
same,GI50,SW-620,3.18 µM (inactive)
same,GI50,LOX IMVI,2.54 µM (inactive)
same,GI50,HCT-116,1.65 µM (inactive)
same,GI50,NCI-H460,2.13 µM (inactive)
same,GI50,Malme-3M,2.07 µM (inactive)
same,GI50,OVCAR-5,12.4 µM (inactive)
same,GI50,SNB-19,2.1 µM (inactive)
same,GI50,HCC 2998,2.13 µM (inactive)
same,GI50,RPMI-8226,2.34 µM (inactive)
same,GI50,SR,1.66 µM (inactive)
same,GI50,DU-145,2.66 µM (inactive)
same,GI50,T47D,1.41 µM (inactive)
same,GI50,A498,12.4 µM (inactive)
same,GI50,HOP-92,3.53 µM (inactive)
same,GI50,MDA-N,4.81 µM (inactive)
same,GI50,SK-MEL-5,3.22 µM (inactive)
same,GI50,SF-268,3.12 µM (inactive)
same,GI50,BT-549,3.8 µM (inactive)
same,GI50,A549,4.06 µM (inactive)
same,GI50,MOLT-4,1.85 µM (inactive)
same,GI50,M14,4.05 µM (inactive)
same,GI50,CAKI-1,3.07 µM (inactive)
same,GI50,OVCAR-8,1.95 µM (inactive)
same,GI50,OVCAR-3,4.24 µM (inactive)
same,GI50,COLO 205,3.85 µM (inactive)
same,GI50,UO-31,2.9 µM (inactive)
Cc1cccc(Nc2cc(Cl)nc(SCC(=O)O)n2)c1C [PIRINIXIC ACID],GI50,RXF 393,> 100 µM (inactive)
same,GI50,MCF7,> 100 µM (inactive)
same,GI50,UACC-62,> 100 µM (inactive)
same,GI50,NCI-H226,> 100 µM (inactive)
same,GI50,HT-29,> 100 µM (inactive)
same,GI50,SK-MEL-2,> 100 µM (inactive)
same,GI50,U-251,> 100 µM (inactive)
same,GI50,HCT-15,> 100 µM
same,GI50,MDA-MB-435,> 100 µM (inactive)
same,GI50,HOP-62,> 100 µM (inactive)
same,GI50,786-0,> 100 µM (inactive)
same,GI50,SN12C,> 100 µM (inactive)
same,GI50,K562,87.5 µM (inactive)
same,GI50,CCRF-CEM,> 100 µM (inactive)
same,GI50,NCI/ADR-RES,> 100 µM (inactive)
same,GI50,SK-OV-3,> 100 µM (inactive)
same,GI50,HL-60,> 100 µM (inactive)
same,GI50,SK-MEL-28,> 100 µM (inactive)
same,GI50,NCI-H23,> 100 µM (inactive)
same,GI50,UACC-257,> 100 µM (inactive)
same,GI50,Hs-578T,> 100 µM (inactive)
same,GI50,SF-539,> 100 µM (inactive)
same,GI50,EKVX,> 100 µM (inactive)
same,GI50,TK-10,> 100 µM (inactive)
same,GI50,NCI-H522,> 100 µM (inactive)
same,GI50,IGROV-1,> 100 µM (inactive)
same,GI50,SF-295,> 100 µM (inactive)
same,GI50,ACHN,> 100 µM (inactive)
same,GI50,PC-3,> 100 µM (inactive)
same,GI50,OVCAR-4,> 100 µM (inactive)
same,GI50,MDA-MB-231,> 100 µM (inactive)
same,GI50,KM12,> 100 µM (inactive)
same,GI50,SNB-75,> 100 µM (inactive)
same,GI50,SW-620,> 100 µM (inactive)
same,GI50,LOX IMVI,> 100 µM (inactive)
same,GI50,HCT-116,> 100 µM (inactive)
same,GI50,NCI-H460,> 100 µM (inactive)
same,GI50,Malme-3M,> 100 µM (inactive)
same,GI50,OVCAR-5,> 100 µM (inactive)
same,GI50,SNB-19,> 100 µM (inactive)
same,GI50,RPMI-8226,97.7 µM (inactive)
same,GI50,SR,> 100 µM (inactive)
same,GI50,DU-145,> 100 µM (inactive)
same,GI50,T47D,> 100 µM (inactive)
same,GI50,A498,> 100 µM (inactive)
same,GI50,HOP-92,> 100 µM (inactive)
same,GI50,MDA-N,> 100 µM (inactive)
same,GI50,SK-MEL-5,> 100 µM (inactive)
same,GI50,BT-549,> 100 µM (inactive)
same,GI50,A549,> 100 µM (inactive)
same,GI50,MOLT-4,63.1 µM (inactive)
same,GI50,M14,> 100 µM (inactive)
same,GI50,CAKI-1,> 100 µM (inactive)
same,GI50,OVCAR-8,> 100 µM (inactive)
same,GI50,OVCAR-3,> 100 µM (inactive)
same,GI50,COLO 205,> 100 µM (inactive)

# From ChEMBL document CHEMBL1201862, “PubChem BioAssay data set” (2004)
